Assay results published in US9408842B2, “Substituted pyrano and furanoquinolines, their preparation and use as medicaments” (LABORATORIOS DEL DR. ESTEVE S.A., priority 2012, dated 2016).
Counter-ions that a name gives are not always drawn.

Target: T1, σ1-receptor (Cavia porcellus, UniProt Q60492)
T1 construct: Guinea pig brains were homogenized in 10 vols; (w/v) of Tris-HCl 50 mM 0.32 M sucrose, pH 7.4; from tissue; host or cells: guinea pig brain membranes
Test: binding assay for the σ1-receptor, [3H]-(+)-pentazocine, brain membranes
Conditions: guinea pig brain membranes; radioligand [3H]-(+)-pentazocine 5.0 nM; 150 min at 37° C.; nonspecific binding with 1 μM haloperidol
Protocol: Guinea pig brains were homogenized in 10 vols. (w/v) of Tris-HCl 50 mM 0.32 M sucrose, pH 7.4, with a Kinematica Polytron PT 3000 at 15000 r.p.m. for 30 s. The homogenate was centrifuged at 1000 g for 10 min at 4° C. and the supernatants collected and centrifuged again at 48000 g for 15 min at 4° C. The pellet was resuspended in 10 volumes of Tris-HCl buffer (50 mM, pH 7.4), incubated at 37° C. for 30 min, and centrifuged at 48000 g for 20 min at 4° C. Following this, the pellet was re-suspended in fresh Tris-HCl buffer (50 mM, pH 7.4) and stored on ice until use.
The radioligand used was [^3H]-(+)-pentazocine at 5.0 nM and the final volume was 200 μl. The incubation was initiated with the addition of 100 μl of membrane at a final tissue concentration of approximately 5 mg tissue net weight/mL and the incubation time was 150 m. at 37° C. After incubation, the membranes were collected onto pretreated glass fiber filterplate (MultiScreen-FC, Millipore), with polyethylenimine 0.1%. The filters were washed two times with 200 μl of washing buffer (50 mM Tris Cl, pH=7.4) and then 25 μl of Ecoscint H liquid scintillation cocktail were added. […] Nonspecific binding was determined with 1 μM haloperidol.

T1 sequence (Q60492 whole entry): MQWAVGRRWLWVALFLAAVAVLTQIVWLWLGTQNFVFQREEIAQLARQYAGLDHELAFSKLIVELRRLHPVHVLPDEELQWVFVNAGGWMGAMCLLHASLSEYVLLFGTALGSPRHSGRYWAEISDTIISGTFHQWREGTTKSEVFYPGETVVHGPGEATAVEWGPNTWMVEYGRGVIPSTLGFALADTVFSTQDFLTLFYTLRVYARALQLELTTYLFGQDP

Question: For `Fc1ccc(COc2ccc3c(c2)[C@H]2OCC[C@H]2[C@@H](C2CCCCC2)N3)cc1` (racemic) [Example 91, (3aSR*,4RS*,9bSR*)-4-cyclohexyl-8-(4-fluorobenzyloxy)-2,3,3a,4,5,9b-hexahydrofuro[3,2-c]quinoline hydrochloride], which Ki is on record?
Answer: The Ki was 267 nM.

Question: How did the Ki turn out when `CC(C)CCOc1ccc2c(c1)[C@H]1OCCC[C@H]1[C@@H](C1CCN(Cc3ccccc3)CC1)N2` (racemic) [Example 6, (4aSR*,5RS*,10bSR*)-5-(1-benzylpiperidin-4-yl)-9-(isopentyloxy)-3,4,4a,5,6,10b-hexahydro-2H-pyrano[3,2-c]quinoline hydrochloride] was run?
Answer: Its Ki is 15.1 nM.

Question: For `Clc1cccc(Oc2ccc3c(c2)[C@H]2OCCC[C@H]2[C@@H](C2CCCCC2)N3)c1` (racemic) [Example 1, (4aSR*,5RS*,10bSR*)-9-(3-chlorophenoxy)-5-cyclohexyl-3,4,4a,5,6,10b-hexahydro-2H-pyrano[3,2-c]quinoline hydrochloride], which Ki is on record?
Answer: Its Ki is 187 nM.

Question: Which Ki does the source give for `Clc1ccc(Oc2ccc3c(c2)[C@H]2OCCC[C@H]2[C@@H](C2CCCCC2)N3)cc1Cl` (racemic) [Example 93, (4aSR*,5RS*,10bSR*)-5-cyclohexyl-9-(3,4-dichlorophenoxy)-3,4,4a,5,6,10b-hexahydro-2H-pyrano[3,2-c]quinoline hydrochloride] here?
Answer: The Ki was 79.3 nM.

Question: With `CCCCCc1ccc2c(c1)[C@H]1OCCC[C@H]1[C@@H](C1CCCCC1)N2` (racemic) [Example 60, (4aSR*,5RS*,10bSR*)-5-cyclohexyl-9-pentyl-3,4,4a,5,6,10b-hexhaydro-2H-pyrano[3,2-c]quinoline hydrochloride] as the molecule, how does the Ki read?
Answer: Its Ki is 42.6 nM.

Question: `CCCCCc1ccc2c(c1)[C@H]1OCC[C@H]1[C@@H](C1CCSCC1)N2` (racemic) [Example 95, (3aSR*,4RS*,9bSR*)-8-pentyl-4-tetrahydro-2H-thiopyran-4-yl)-2,3,3a,4,5,9b-hexahydrofuro[3,2-c]quinoline hydrochloride] was tested. Which Ki did it give?
Answer: The Ki was 89.1 nM.

Question: Which Ki does the source give for `NCCCOc1ccc2c(c1)[C@H]1OCCC[C@H]1[C@@H](C1CCCCC1)N2` (racemic) [Example 112, 3-((4aSR*,5RS*,10bSR*)-5-cyclohexyl-3,4,4a,5,6,10b-hexahydro-2H-pyrano[3,2-c]quinolin-9-yloxy)propan-1-amine hydrochloride] here?
Answer: The Ki was 134 nM.

Question: Which Ki does the source give for `Clc1ccc(Oc2ccc3c(c2)[C@H]2OCC[C@H]2[C@@H](C2CCCCC2)N3)cc1Cl` (racemic) [Example 92, (3aSR*,4RS*,9bSR*)-4-cyclohexyl-8-(3,4-dichlorophenoxy)-2,3,3a,4,5,9b-hexahydrofuro[3,2-c]quinoline hydrochloride] here?
Answer: Its Ki is 110 nM.
